Tests used:
A549 cells = test: Cell growth (alamar blue); assay type: cell-based; conditions: Homo sapiens
H358 cells [1] = test: Cell growth / drug combination analysis (alamar blue, Calcusyn); assay type: cell-based; conditions: Homo sapiens, NCI-H358
EGFR = conditions: H358 cells, 72 h, western blot
phospho-Tyr1068 EGFR = conditions: H358 cells, 72 h, western blot
H460 cells = test: Cell growth (alamar blue); assay type: cell-based; conditions: Homo sapiens, NCI-H460
phospho-ERK = test: Western blot of H358 cell lysates; assay type: cell-based; conditions: H358 cells, 72 h
cleaved PARP = test: Western blot for cleaved PARP (apoptosis marker) in H358 cells; assay type: cell-based; conditions: 72 h, range of concentrations
cyclin D1 [2] = test: Western blot of H358 cell lysates; assay type: cell-based; conditions: H358 cells, 72 h
H292 xenograft = H292 xenograft model; assay type: in vivo, nude mice; conditions: seliciclib 50 mg bid, [1] 40 mg bid days 1-5 and 11-15; erlotinib 100 mg qd po, 50 mg from day 11
H292 cells = test: Drug combination analysis (Alamar blue, Calcusyn); conditions: 72 hours
SkBr3 cells = test: Cell growth / drug combination analysis (alamar blue, Calcusyn); assay type: cell-based; conditions: for Calcusyn combination value at 50% effective dose: in combination with Lapatinib
H358 xenograft = conditions: day 49, erlotinib 100 mg/kg po daily, 28 days; for mean tumour volume: seliciclib 50 mg/kg ip twice daily 5 days on/2 off
H358 cells [3] = test: Flow cytometry of DNA content (propidium iodide); conditions: 1×IC50, 72 h
Experimental: (B) The DNA content of the cells was analysed by flow cytometry after propidium iodide staining. Sub-G1 cells are those that contain less DNA than normal diploid cells. Results are representative of two independent experiments.
H358 or H1650 cells were seeded in 10 cm plates at approximately 5×10^5 cells/plate and left to settle overnight. […] After 72 h treatment, cells were harvested by trypsinisation, washed twice in PBS and then fixed overnight in 70% (v/v) ethanol at −20° C. Cells were washed twice in PBS containing 1% (w/v) BSA, then incubated with 50 μg/ml propidium iodide and 50 μg/ml ribonuclease A for 20 min at room temperature. Cells were analysed for DNA content by flow cytometry using the CellQuest programme on a Becton Dickinson LSR flow cytometer.

cyclin D1 [4] = test: Western blot of SkBr3 cell lysates; assay type: cell-based; conditions: SkBr3 cells, 24 h
MCF7 cells = test: Cell growth (alamar blue); assay type: cell-based
HER2 = test: Western blot of SkBr3 cell lysates; assay type: cell-based; conditions: SkBr3 cells, 24 h

Structure (SMILES) | effect on tumour growth (H292 xenograft) | Calcusyn combination value at 50% effective dose (H292 cells; in combination with AG1478) | Calcusyn combination value at 50% effective dose (H292 cells; in combination with Erlotinib) | Calcusyn combination value at 50% effective dose (H292 cells; in combination with Gefitinib) | Calcusyn combination value at 50% effective dose (H292 cells; in combination with Lapatinib) | also measured
COc1cc2ncnc(Nc3cccc(Cl)c3)c2cc1OC [AG1478, 4-(3-chloroanilino)-6,7-dimethoxyquinazoline] |  |  |  |  |  | IC50 (A549 cells): 6.6 µM; IC50 (H358 cells [1]): 4 µM; level of the EGFR (EGFR): decreased the level of the EGFR in a dose-dependent manner; EGFR phosphorylation (phospho-Tyr1068 EGFR): dose-dependent decrease; IC50 (H460 cells): 10.4 µM; ERK phosphorylation (phospho-ERK): stimulated ERK phosphorylation at low concentrations; PARP cleavage (cleaved PARP): no increase in PARP cleavage; cyclin D1 levels (cyclin D1 [2]): very little effect
CC[C@@H](Nc1nc(NCc2cccnc2)c2ncn(C(C)C)c2n1)C(C)(C)O [[1], (3R)-3-{9-isopropyl-6-[(pyridin-3-ylmethyl)-amino]-9H-purin-2-ylamino}-2-methyl-pentan-2-ol] | minimal if any effect on tumour growth | 0.42 | 0.71 | 0.50 | 0.69 | 
CC[C@H](Nc1nc(NCc2cccnc2)c2ncn(C(C)C)c2n1)C(C)(C)O [[2], (3S)-3-{9-isopropyl-6-[(pyridin-3-ylmethyl)-amino]-9H-purin-2-ylamino}-2-methyl-pentan-2-ol] |  | 0.26 | 0.62 | 0.54 | 0.79 | 
CC[C@H](Nc1nc(NCc2cccnc2)c2ncn(C(C)C)c2n1)[C@@H](C)O [[3], (2R3S)-3-{9-isopropyl-6-[(pyridine-3-ylmethyl)-amino]-9H-purin-2-ylamino}-pentan-2-ol] |  | 0.31 | 0.68 | 0.49 | 0.76 | 
CC[C@H](Nc1nc(NCc2cnc(C)cc2C)c2ncn(C(C)C)c2n1)[C@@H](C)O [[4]] |  | 0.36 | 0.87 | 0.55 | 0.59 | Calcusyn combination value at 50% effective dose (SkBr3 cells): 0.67
C#Cc1cccc(Nc2ncnc3cc(OCCOC)c(OCCOC)cc23)c1 [erlotinib] | moderately effective |  |  |  |  | mean tumour volume (H358 xenograft): 444 mm^3; tumour growth inhibition (H358 xenograft; seliciclib 50 mg/kg ip twice daily): 44%
CC[C@H](CO)Nc1nc(NCc2ccccc2)c2ncn(C(C)C)c2n1 [seliciclib, 2-(1-R-hydroxymethylpropylamino)-6-benzylamino-9-isopropylpurine] | minimal if any effect on tumour growth | 0.38 | 0.68 | 0.53 | 0.57 | G2/M phase cells (H358 cells [3]): characteristic increase in G2/M phase cells; cyclin D1 levels (cyclin D1 [4]): significantly decreased cyclin D1 levels in a dose-dependent manner; level of the EGFR (EGFR): decreased the level of the EGFR in a dose-dependent manner; EGFR phosphorylation (phospho-Tyr1068 EGFR): limited effect; mean tumour volume (H358 xenograft): 717 mm^3; IC70 (growth inhibition) (MCF7 cells): 15.4 µM; ERK phosphorylation (phospho-ERK): no significant effect; IC70 (growth inhibition) (SkBr3 cells): 20.4 µM; Calcusyn combination value at 50% effective dose (SkBr3 cells): 0.72; PARP cleavage (cleaved PARP): dose-dependent increase in cleaved PARP; cyclin D1 levels (cyclin D1 [2]): modest decrease; HER2 levels (HER2): decreased HER2 levels in a dose-dependent manner
